Measured values from patent US20140341916A1, “THERAPEUTIC COMBINATIONS AND METHODS OF TREATING MELANOMA” (Genentech, Inc., priority 2011, published 2014).

How the values were obtained:
ETBR transcript [1] = experiment: PD study, ETBR transcript in A2058 tumors, Taqman, normalized to Hprt1; format: in vivo, mice; settings: MEKi-973 5 mpk and 10 mpk orally once a day for 3 days
Experimental: A2058 or COLO 829 tumors were grown to an average size of approximately 200 mm^3, whereupon animals were randomized into groups of 5-6 each. For the BRAFi PD study, an appropriate vehicle control (Klucel LF) or RG7204 at doses of 10 mpk or 30 mpk were administered twice a day for 3 days (FIG. 27A). For the MEKi PD study, an appropriate vehicle control or MEKi-973 at doses of 5 mpk and 10 mpk were administered orally once a day for 3 days (FIG. 27B). Flash frozen tumors harvested at end of study were homogenized and processed for RNA and/or protein. Taqman assays were set up using reagents from Applied Biosystems (ABI, Foster City, Calif.) and assayed using 7500 Real Time PCR machine and software from ABI. Primer-probe sets were designed with primers flanking a fluorogenic probe dual labeled with Reporter dye FAM and quencher dye TAMRA. ETBR transcript levels in the tumors were normalized against transcript levels of reference genes such as Hprt1 (hypoxanthine phosphoribosyltransferase 1) or GAPDH (glyceraldehyde 3 phosphate dehydrogenase) using primer and probe sets that were specific to the human homologs of these genes.

ETBR surface protein = experiment: Surface ETBR protein in live melanoma cells, FACS; format: cell-based, human; settings: 24 h
Experimental: (§1) Melanoma cell lines UACC-257X2.2, A2058, COLO 829, IPC-298 (ATCC) were treated with a BRAF inhibitor drug (“BRAFi”), specifically RG7204 at varying concentrations by adding the appropriate drug volume to cells in culture for 24 h on four-well dishes.
(§2) To determine whether the observed increases in total ETBR protein level due to BRAFi treatment also results in an increase of ETBR surface protein levels, a fluorescence-activated cell sorting (FACS) analysis was performed. Cells were harvested in PBS with 2.5 mmol/L EDTA and washed in PBS buffer containing 1% FBS. All subsequent steps were carried out at 4° C. Cells were incubated for 1 hour with 3 μg/mL anti ETBR antibody Hu5E9v1, followed by anti-human IgG fluorescent detection reagent (A11013; Invitrogen). Cells were then analyzed with a FACS Calibur flow cytometer (BD Biosciences). The results for UACC-257X2.2 are shown in FIG. 4C, the results for A2058 are shown in FIG. 8C, and the results for COLO 829 are shown in FIG. 6C.
(§3) Melanoma cell lines A2058, COLO 829, SK23-MEL and IPC-298 (ATCC) were treated with a MEK inhibitor drug (“MEKi-973” or “MEKi-623”), at varying concentrations (0 μM, 0.01 μM, 0.1 μM or 1 μM) by adding the appropriate drug volume to cells in culture for 24 h on four-well dishes.
as §2, with “MEKi” for “BRAFi”, “performed as described above.” for “performed.”, “Biosciences).” for “Biosciences). The results for UACC-257X2.2 are shown in FIG. 4C, the results for A2058 are shown in FIG. 8C, and the results for COLO 829 are shown in FIG. 6C.”

ETBR total protein = ETBR total protein in melanoma cell lines, Western blot; format: cell-based, human; settings: 24 h
Experimental: as §1
To test whether the increase in ETBR transcripts due to BRAFi treatment also results in any changes in ETBR total protein levels, Western blot experiments were performed on the same cell lines treated with BRAFi RG7204 as described above. For Western blotting, the following reagents were used: for detection of proteins: an anti-ETBR in-house generated monoclonal antibody 1H1.8.5, anti-Phospho-p44/42 MAPK (Erk1/2) (Thr202/Tyr204) antibody (9101, Cell Signaling Technology), anti-p44/42 MAPK (Erk1/2) antibody (9102, Cell Signaling Technology) and as controls, a rabbit polyclonal anti-GAPDH (glyceraldehyde-3-phosphate dehydrogenase) antibody (PA1-987; Affinity Bioreagents) and mouse monoclonal anti-β-Tubulin antibody (556321, BD Pharmingen). The results for UACC-257X2.2 are shown in FIG. 4B, the results for A2058 are shown in FIG. 8B, the results for COLO 829 are shown in FIG. 6B and the results for IPC-298 are shown in FIG. 10.
as §3
To test whether the increase in ETBR transcripts due to MEKi treatment also results in any changes in ETBR total protein levels, Western blot experiments were performed on cell lines COLO829 (BRAF^V600E), A2058 (BRAF^V600E), SK23-MEL (BRAF^WT/RAS^WT), or IPC-298 (BRAF^WT/RAS^[…]) which were treated with MEKi-973 as described above. For Western blotting, the following reagents were used: for detection of proteins: an anti-ETBR in-house generated monoclonal antibody 1H1.8.5, anti-Phospho-p44/42 MAPK (Erk1/2) (Thr202/Tyr204) antibody (9101, Cell Signaling Technology), anti-p44/42 MAPK (Erk1/2) antibody (9102, Cell Signaling Technology) and as controls, a rabbit polyclonal anti-GAPDH (glyceraldehyde-3-phosphate dehydrogenase) antibody (PA1-987; Affinity Bioreagents) and mouse monoclonal anti-β-Tubulin antibody (556321, BD Pharmingen). The results for A2058 are shown in FIG. 15A treated with MEKi-623 and 15B treated with MEKi-973, the results for COLO 829 are shown in FIG. 12A treated with MEKi-623 and 12B treated with MEKi-973, the results for SK23-MEL are shown in FIG. 19A treated with MEKi-623 and 19B treated with MEKi-973, and the results for IPC-298 are shown in FIG. 22A treated with MEKi-623 and 22B treated with MEKi-973.

ETBR transcript [2] = experiment: ETBR transcript level in melanoma cell lines, Taqman, normalized to RPL19; format: cell-based, human; settings: A2058 cells, 24 h
Experimental: as §1
(§4) To determine the effect of BRAFi on ETBR and control ribosomal protein L19 (RPL19) transcript levels, the following experiments were performed. Cells treated with RG7204 for 24 h were harvested from plates by scraping and processed for total RNA using Qiashredder and RNeasy mini kits (79654, 74104 from Qiagen, Valencia, Calif.). Taqman assays were set up using reagents from Applied Biosystems (ABI, Foster City, Calif.) and assayed using 7500 Real Time PCR machine and software from ABI. Primer-probe sets were designed with primers flanking a fluorogenic probe dual labeled with Reporter dye FAM and quencher dye TAMRA.
as §3
as §4, with “MEKi” for “BRAFi”, “ETBR” for “ETBR and control ribosomal protein L19 (RPL19)”, “performed as described above in Example 3.” for “performed.”, “either MEKi-973” for “RG7204”

O=C(c1ccc(F)c(F)c1Nc1ccc(I)cc1F)N1CC(O)([C@@H]2CCCCN2)C1 [MEKi-973, (S)-(3,4-difluoro-2-((2-fluoro-4-iodophenyl)amino)phenyl)(3-hydroxy-3-(piperidin-2yl)azetidin-1-yl)methanone]
ETBR mRNA in tumors vs control vehicle (ETBR transcript [1]): induces ETBR mRNA in vivo | surface level of ETBR protein vs untreated control cells (ETBR surface protein; A2058 cells): appears to increase the surface levels of ETBR protein | surface level of ETBR protein vs untreated control cells (ETBR surface protein; COLO 829 cells): appears to increase the surface levels of ETBR protein | surface level of ETBR protein vs untreated control cells (ETBR surface protein; IPC-298 cells): appears to increase the surface levels of ETBR protein | surface level of ETBR protein vs untreated control cells (ETBR surface protein; SK23-MEL cells): appears to increase the surface levels of ETBR protein | ETBR total protein level vs untreated control cells (ETBR total protein; A2058 cells (BRAF V600E)): appears to increase the ETBR total protein levels | ETBR total protein level vs untreated control cells (ETBR total protein; COLO 829 cells (BRAF V600E)): appears to increase the ETBR total protein levels | ETBR total protein level vs untreated control cells (ETBR total protein; IPC-298 cells (BRAF wild-type, RAS mutant)): appears to increase the ETBR total protein levels | ETBR total protein level vs untreated control cells (ETBR total protein; SK23-MEL cells (BRAF WT/RAS WT)): appears to increase the ETBR total protein levels | ETBR transcript vs untreated control cells (ETBR transcript [2]): appears to increase the ETBR transcripts
